Experimental findings from patent US9896441B2 (Lycera Corporation, priority 2014, dated 2018) are described below.

In one assay the target is T1, RORγ-LBD (Homo sapiens, UniProt P51449).
T1 construct: made in house; host or cells: SF9 cells (baculovirus); used as diluted lysate
T1 sequence (P51449 269-508 limits assumed): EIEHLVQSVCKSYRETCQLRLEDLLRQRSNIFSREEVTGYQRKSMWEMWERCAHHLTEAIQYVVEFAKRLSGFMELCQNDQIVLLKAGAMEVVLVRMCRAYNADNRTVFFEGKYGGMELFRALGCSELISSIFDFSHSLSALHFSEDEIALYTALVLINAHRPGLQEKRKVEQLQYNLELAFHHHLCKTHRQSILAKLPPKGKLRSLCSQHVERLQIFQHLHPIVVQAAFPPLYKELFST
Kind of assay: RORγ-Ligand Binding Domain (LBD) TR-FRET Assay. The note with it: RORγ-LBD TR-FRET. It counts as biochemical. In a few lines: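 Lysate from SF9 cells expressing His-RORγ-LBD is diluted to about 3 nM final in 50 mM Tris pH 7.0 assay buffer. A biotin-tagged SRC1 LXXLL peptide goes in at 200 nM final, plus ursolic acid at 2 μM final. Test compounds carry 1% DMSO final; signal read by TR-FRET.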
(In general: TR-FRET usually uses a lanthanide donor and a delayed reading to cut background.)

A further assay concerns the target T2, Gal4-RORγ-LBD (Homo sapiens, UniProt P51449).
T2 construct: expressed in transfected cells
T2 sequence (P51449 269-508 limits assumed): T1 sequence (P51449 269-508 limits assumed)
Kind of assay: Gal4-RORγ Luciferase Reporter Assay in HEK-293T Cells. The note with it: HEK-293 cells, luciferase reporter, with ursolic acid. Format: cell-based. The gist of the method:
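Max Response was taken as the upper plateau of a 4-parameter logistic fit of luciferase signal, normalized to 100 for wells without ursolic acid or compound. Transiently Gal4-RORγ-LBD/Gal4-luc transfected HEK-293 cells carrying […] ursolic acid were incubated with test compounds (0.2% DMSO) overnight at 37 °C and read with One-Glo.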
On the technique in general: In a reporter assay the amount or activity of a reporter protein is the signal.

Usually EC50 stands for the midpoint of the concentration-response curve. High values mean a less potent agent, low ones a more potent agent. Turning to `CCOc1ncc(C(F)(F)F)cc1S(=O)(=O)N1C[C@H](CCC(=O)OC)Oc2ccc(/C=C/c3c(Cl)cccc3C(F)F)cc21` [Example 89EK, methyl (S,E)-3-(6-(2-chloro-6-(difluoromethyl)styryl)-4-((2-ethoxy-5-(trifluoromethyl)-pyridin-3-yl)sulfonyl)-3,4-dihydro-2H-benzo[b][1,4]-oxazin-2-yl)propanoate], the values for the 50% effective concentration (EC50) on RORγ-LBD and on Gal4-RORγ-LBD were less than 500 nM and 500 to 5000 nM, respectively.

On to `COC(=O)CC[C@H]1CN(S(=O)(=O)c2cc(C(F)(F)F)cnc2OCCO)c2cc(/C=C/c3c(Cl)cccc3C(F)F)ccc2O1` [Example 89EL, methyl (S,E)-3-(6-(2-chloro-6-(difluoromethyl)styryl)-4-((2-(2-hydroxyethoxy)-5-(trifluoromethyl)pyridin-3-yl)sulfonyl)-3,4-dihydro-2H-benzo[b][1,4]oxazin-2-yl)propanoate], for which the EC50 on RORγ-LBD and on Gal4-RORγ-LBD was less than 500 nM throughout.

Turning to `O=C(O)CC[C@H]1CN(S(=O)(=O)c2cc(C(F)(F)F)cnc2OCCO)c2cc(/C=C/c3c(Cl)cccc3C(F)F)ccc2O1` [Example 89EM, (S,E)-3-(6-(2-chloro-6-(difluoromethyl)styryl)-4-((2-(2-hydroxyethoxy)-5-(trifluoromethyl)pyridin-3-yl)sulfonyl)-3,4-dihydro-2H-benzo[b][1,4]oxazin-2-yl)propanoic acid], the EC50 at RORγ-LBD and on Gal4-RORγ-LBD was less than 500 nM each time.

As for `O=C(O)CC[C@H]1CN(S(=O)(=O)c2cccc(C(F)(F)F)c2)c2cc(/C=C/c3c(Cl)cccc3C(F)F)ccc2O1` [Example 89EN, (S,E)-3-(6-(2-chloro-6-(difluoromethyl)styryl)-4-((3-(trifluoromethyl)phenyl)sulfonyl)-3,4-dihydro-2H-benzo[b][1,4]oxazin-2-yl)propanoic acid], the concentration for a half-maximal effect (EC50) on RORγ-LBD and at Gal4-RORγ-LBD was less than 500 nM each time.

Consider `O=C(O)CC[C@H]1CN(S(=O)(=O)c2cccc(C(F)F)c2)c2cc(/C=C/c3c(Cl)cccc3C(F)F)ccc2O1` [Example 89EP, (S,E)-3-(6-(2-chloro-6-(difluoromethyl)styryl)-4-((3-(difluoromethyl)phenyl)-sulfonyl)-3,4-dihydro-2H-benzo[b][1,4]oxazin-2-yl)propanoic acid], for which the EC50 at RORγ-LBD and on Gal4-RORγ-LBD was less than 500 nM each time.

Regarding `COC(=O)CC[C@H]1CN(S(=O)(=O)c2cccc(C(F)F)c2)c2cc(/C=C/c3c(Cl)cccc3C(F)F)ccc2O1` [Example 89EQ, methyl (S,E)-3-(6-(2-chloro-6-(difluoromethyl)styryl)-4-((3-(difluoromethyl)phenyl)-sulfonyl)-3,4-dihydro-2H-benzo[b][1,4]oxazin-2-yl)propanoate], the EC50 at RORγ-LBD and on Gal4-RORγ-LBD was less than 500 nM in each case.

Turning to `COc1cccc(C(F)(F)F)c1/C=C/c1ccc2c(c1)N(S(=O)(=O)c1cccc(C(F)(F)F)c1)C[C@H](CCC(=O)O)O2` [Example 89ER, (S,E)-3-(6-(2-methoxy-6-(trifluoromethyl)styryl)-4-((3-(trifluoromethyl)phenyl)-sulfonyl)-3,4-dihydro-2H-benzo[b][1,4]oxazin-2-yl)propanoic acid], the EC50 on RORγ-LBD and on Gal4-RORγ-LBD was less than 500 nM throughout.

Regarding `COC(=O)CC[C@H]1CN(S(=O)(=O)c2cccc(C(F)(F)F)c2)c2cc(/C=C/c3c(OC)cccc3C(F)(F)F)ccc2O1` [Example 89ES, methyl (S,E)-3-(6-(2-methoxy-6-(trifluoromethyl)styryl)-4-((3-(trifluoromethyl)phenyl)-sulfonyl)-3,4-dihydro-2H-benzo[b][1,4]oxazin-2-yl)propanoate], the results for the EC50 at RORγ-LBD and on Gal4-RORγ-LBD were less than 500 nM and 500 to 5000 nM, respectively.

On to `CCOc1ncc(C(F)(F)F)cc1S(=O)(=O)N1C[C@H](CCC(=O)O)Oc2ccc(/C=C/c3c(OC)cccc3C(F)(F)F)cc21` [Example 89ET, (S,E)-3-(4-((2-ethoxy-5-(trifluoromethyl)pyridin-3-yl)sulfonyl)-6-(2-methoxy-6-(trifluoromethyl)styryl)-3,4-dihydro-2H-benzo[b][1,4]-oxazin-2-yl)propanoic acid], for which the half-maximal effective concentration (EC50) on RORγ-LBD and on Gal4-RORγ-LBD was less than 500 nM throughout.

For `CCOc1ncc(C(F)(F)F)cc1S(=O)(=O)N1C[C@H](CCC(=O)OC)Oc2ccc(/C=C/c3c(OC)cccc3C(F)(F)F)cc21` [Example 89EU, methyl (S,E)-3-(4-((2-ethoxy-5-(trifluoromethyl)pyridin-3-yl)sulfonyl)-6-(2-methoxy-6-(trifluoromethyl)styryl)-3,4-dihydro-2H-benzo[b][1,4]-oxazin-2-yl)propanoate], the EC50 is less than 500 nM on RORγ-LBD and 500 to 5000 nM at Gal4-RORγ-LBD.

As for `CC(F)(F)c1cccc(Cl)c1/C=C/c1ccc2c(c1)N(S(=O)(=O)c1cccc(C(F)(F)F)c1)C[C@H](CCC(=O)O)O2` [Example 89EV, (S,E)-3-(6-(2-chloro-6-(1,1-difluoroethyl)styryl)-4-((3-(trifluoromethyl)phenyl)-sulfonyl)-3,4-dihydro-2H-benzo[b][1,4]oxazin-2-yl)propanoic acid], the values for the EC50 at RORγ-LBD and on Gal4-RORγ-LBD were less than 500 nM and 5000 to 10000 nM, respectively.

Regarding `COC(=O)CC[C@H]1CN(S(=O)(=O)c2cccc(C(F)(F)F)c2)c2cc(/C=C/c3c(Cl)cccc3C(C)(F)F)ccc2O1` [Example 89EW, methyl (S,E)-3-(6-(2-chloro-6-(1,1-difluoroethyl)styryl)-4-((3-(trifluoromethyl)phenyl)-sulfonyl)-3,4-dihydro-2H-benzo[b][1,4]oxazin-2-yl)propanoate], the half-maximal effective concentration (EC50) on RORγ-LBD and at Gal4-RORγ-LBD was less than 500 nM each time.

For the compound `C[C@H]1CN(S(=O)(=O)c2cc(C(F)(F)F)cnc2OCCO)c2cc(/C=C/c3c(Cl)cccc3C(F)(F)F)ccc2O1` [Example 89EX, (S,E)-2-((3-((6-(2-chloro-6-(trifluoromethyl)styryl)-2-methyl-2,3-dihydro-4H-benzo[b][1,4]oxazin-4-yl)sulfonyl)-5-(trifluoromethyl)-pyridin-2-yl)oxy)ethan-1-ol], the concentration for a half-maximal effect (EC50) at RORγ-LBD was less than 500 nM; at Gal4-RORγ-LBD, 500 to 5000 nM.

As for `COc1cccc(Cl)c1/C=C/c1ccc2c(c1)N(S(=O)(=O)c1cccc(C(F)(F)F)c1)C[C@H](CCC(=O)O)O2` [Example 89EY, (S,E)-3-(6-(2-chloro-6-methoxystyryl)-4-((3-(trifluoromethyl)phenyl)-sulfonyl)-3,4-dihydro-2H-benzo[b][1,4]oxazin-2-yl)propanoic acid], the EC50 is less than 500 nM at RORγ-LBD and 500 to 5000 nM on Gal4-RORγ-LBD.

`COC(=O)CC[C@H]1CN(S(=O)(=O)c2cccc(C(F)(F)F)c2)c2cc(/C=C/c3c(Cl)cccc3OC)ccc2O1` [Example 89EZ, methyl (S,E)-3-(6-(2-chloro-6-methoxystyryl)-4-((3-(trifluoromethyl)phenyl)-sulfonyl)-3,4-dihydro-2H-benzo[b][1,4]oxazin-2-yl)propanoate]: the EC50 on RORγ-LBD and at Gal4-RORγ-LBD was less than 500 nM throughout.

As for `CCOc1ncc(C(F)(F)F)cc1S(=O)(=O)N1C[C@H](CCC(=O)O)Oc2ccc(/C=C/c3c(Cl)cccc3OC)cc21` [Example 89FA, (S,E)-3-(6-(2-chloro-6-methoxystyryl)-4-((2-ethoxy-5-(trifluoromethyl)pyridin-3-yl)sulfonyl)-3,4-dihydro-2H-benzo[b][1,4]oxazin-2-yl)propanoic acid], the EC50 on RORγ-LBD and at Gal4-RORγ-LBD was less than 500 nM throughout.
